Key:
[1] = biological target: Sterol 14-alpha demethylase (Trypanosoma cruzi (strain CL Brener), UniProt Q7Z1V1); experiment: GSK_TCAKS: pIC50 CYP51 from Trypanosoma cruzi.; format: functional
[2] = tested on: Trypanosoma brucei brucei; experiment: GSK_TCAKS: pIC50 Trypanosoma brucei viability assay using luminiscence. Assay plates (1536-well) were prepared. T. brucei cultures were harvested and counted in a CASY cell counter. A parasite suspension was prepared at a final concentration of 5 * 10^4 cells/mL in complete HMI9 medium and 6uL was dispensed to all wells containing compounds using a Multidrop Combi dispenser. 6uL of HMI9 media with 0.4% DMSO were dispensed to control columns. Plates were incubated for 24 h at 37C, 5% CO2 then tempered for 10 min at room temperature. ATP content was quantified by adding 4 uL of CellTiter-Glo Reagent (Promega) according to the manufacturer's instructions. Luminescence was measured using a ViewLux.; format: functional, organism-based; details: Lister 427, CASY
[3] = tested on: Trypanosoma cruzi; experiment: GSK_TCAKS: pIC50 Trypanosoma cruzi viability assay using beta-GAL activity. This assay was run at single shot at 5uM compound concentration per well. The biological reagents consisted of NIH-3T3 host cells and trypomastigotes parasitic cells; both cell types were set to a 3.3 * 10^5 cells/mL dilution in assay DMEM by means of a CASY cell counter device using a 60um capillary. 6 uL of the mixture were dispensed per well (about 1 * 10^3 host-cells and 1 * 10^3 parasites) with a Multidrop Combi dispenser. […] In all wells, the percentage of DMSO never exceeded 0.5%. Plates incubated for four days at 37C, 5% CO2. The substrate used for the assay fluorescence intensity (FLINT) readout was resorufin-beta-D-galactopiranoside (Sigma-Aldrich) at 5uM per well. It was diluted in PBS supplemented with the soft detergent Igepal (Fluka).; format: functional, organism-based, Mus musculus; details: Tulahuen, NIH3T3
[4] = tested on: Trypanosoma cruzi; experiment: (§1) GSK_TCAKS: pIC50 H2C9 Imaging: H9c2 Host Cardiomyocytes. […] Cells were then washed once with PBS before infection. T. cruzi trypomastigotes, collected at days 5 to 8 after infection from LLC-MK2 parasite infected cultures, were allowed to swim out for 4h at 37C from a centrifuged pellet (2,500 rpm/10 min/room temperature). Trypomastigotes were then collected and counted in a CASY Cell Counter. Trypomastigotes, in supplemented DMEM, were added to H9c2 cultures in a multiplicity of infection of 1 and incubated for 18 h. Cells were washed once with PBS before incubation of the infected H9c2 monolayer with trypsin (Life-Technologies) to detach cells from the flask. Cells were counted in a CASY Cell Counter using a 150 um capillary and their density set at 5 * 10^4 cells per mL in supplemented assay DMEM. Infected H9c2 were dispensed into 384-well poly-lysine coated assay plates at 50uL per well using a Multidrop Combi dispenser. After seeding them, the plates were incubated at 37C, 5% CO2 for 72h. Cultures were then fixed and stained by addition of 50 uL of a solution containing 8% formaldehyde and 4 uM DRAQ5 DNA dye (BioStatus, UK) per well. […] Five images were collected per well for reliable statistical analysis. Automated image analysis was performed with a script developed on Acapella High Content Imaging and Analysis Software (PerkinElmer). Output: Number of H9c2 Host Cardiomyocytes nuclei to determine drug-related cytotoxicity.; format: functional, organism-based, Rattus norvegicus; details: H9c2, 4 h
[5] = tested on: Leishmania donovani; experiment: (§2) GSK_TCAKS: pIC50 Leishmania donovani Imaging: Infected Macrophages. Assay plates (384-well) were prepared by adding 250nL of compound to each well. For single shot assay, the final compound concentration was 5 uM. […] Automated image analysis was performed with a script developed on Acapella High Content Imaging and Analysis Software (PerkinElmer). Output: Percent of infected macrophage cells were reported for each well.; format: functional, organism-based, Homo sapiens; details: THP-1
[6] = tested on: Trypanosoma brucei brucei; experiment: GSK_TCAKS: pIC50 Trypanosoma brucei viability assay using fluorescence intensity. Assay plates (1536-well) were prepared by dispensing 25nL of compound solution per well using an Echo acoustic dispenser (Labcyte).; format: functional, organism-based; details: Lister 427, 2 h
[7] = tested on: Leishmania donovani; experiment: as §2, with “THP-1 Host” for “Infected”, “THP-1 cell count” for “Percent of infected macrophage cells”; format: functional, organism-based, Homo sapiens
[8] = GSK_TCAKS: pIC50 HepG2 human cell line viability assay using luminiscence. […] Seeding density was checked to ensure that new mono-layers were not more than 50% confluent at the time of harvesting. Cell suspension was added to 500 mL of the same medium at a final density of 1.2 * 10^5 cells/mL. This cell suspension was dispensed (25 uL, 3000 cells per well) into 384-well clear-bottom plates using a Multidrop Combi dispenser. Prior to addition of the cell suspension, the screening compounds (250 nL) were pre-dispensed into the plates with an Echo liquid handler. Plates were incubated for 48 h at 37C, 5% CO2. After incubation, plates equilibrated at room temperature for 30 min before proceeding to develop the luminescent signal. The signal developer, CellTiter-Glo Reagent, was allowed to equilibrate at room temperature for 30 min and added to the plates (25uL per well) using a Multidrop Combi dispenser. Plates were left for 10 min at room temperature for stabilization and then read using a ViewLux.; format: toxicity, cell-based
[9] = tested on: Leishmania donovani; experiment: GSK_TCAKS: pIC50 Leishmania donovani viability assay using fluorescence intensity. Assay plates (1536-well) were prepared by adding 30nL per well of compound. For single shot assay, the final compound concentration was 5uM. […] Briefly, eGFP LdBOB axenic amastigotes were harvested, fixed and counted in a CASY cell counter (Roche-Applied Science). A final concentration of 1.5 * 10^5 cells per well were prepared in amastigote media containing 500 U/mL penicillin/streptomycin (Invitrogen) and 6uL was dispensed to each experimental well using a Multidrop Combi dispenser (Thermo Scientific). 6uL of assay media was dispensed to control columns used as reference for 100% compound response. Following incubation for 72 h at 37C, 5% CO2, 2 uL of resazurin was added to each well at a final concentration of 0.5 mM in phosphate buffered saline (PBS) with IGEPAL (Sigma-Aldrich), 0.05% (v/v).; format: functional, organism-based
[10] = tested on: Trypanosoma cruzi; experiment: as §1, with “Trypanosoma cruzi” for “H2C9”, “Infected Cells.” for “H9c2 Host Cardiomyocytes.”, “percentage” for “Number”, “infected cells per well as a second infection marker.” for “H9c2 Host Cardiomyocytes nuclei to determine drug-related cytotoxicity.”; format: functional, organism-based, Rattus norvegicus; details: H9c2, 4 h
[11] = tested on: Leishmania donovani; experiment: as §2, with “Amastigotes/Macrophages.” for “Infected Macrophages.”, “Average number” for “Percent”, “amastigotes per” for “infected”, “cell” for “cells”; format: functional, organism-based, Homo sapiens; details: THP-1
[12] = tested on: Trypanosoma cruzi; experiment: as §1, with “Trypanosoma cruzi” for “H2C9”, “Amastigotes/Cell.” for “H9c2 Host Cardiomyocytes.”, “number” for “Number”, “amastigotes per cell as infection level measurement.” for “H9c2 Host Cardiomyocytes nuclei to determine drug-related cytotoxicity.”; format: functional, organism-based, Rattus norvegicus; details: H9c2, 4 h
[13] = tested on: NIH3T3; experiment: GSK_TCAKS: pIC50 NIH 3T3 cell line viability assay using luminiscence. Tissue culture surface treated assay plates (1536-well) were used. […] The 100% cells survival control was determined exposing the host-cells to a 0.5% DMSO concentration, whereas the 100% toxicity control was achieved by seeding the cells in presence of Amphotericin B at 50uM. Plates were incubated for four days at 37C, 5% CO2. The assay readout was developed by addition of 5uL of CellTiter-Glo Reagent following the manufacturer's instructions. Luminiscence was measured using a ViewLux.; format: functional, cell-based; details: Mus musculus, NIH3T3, 96 h

Sequence of Sterol 14-alpha demethylase (Q7Z1V1 whole entry): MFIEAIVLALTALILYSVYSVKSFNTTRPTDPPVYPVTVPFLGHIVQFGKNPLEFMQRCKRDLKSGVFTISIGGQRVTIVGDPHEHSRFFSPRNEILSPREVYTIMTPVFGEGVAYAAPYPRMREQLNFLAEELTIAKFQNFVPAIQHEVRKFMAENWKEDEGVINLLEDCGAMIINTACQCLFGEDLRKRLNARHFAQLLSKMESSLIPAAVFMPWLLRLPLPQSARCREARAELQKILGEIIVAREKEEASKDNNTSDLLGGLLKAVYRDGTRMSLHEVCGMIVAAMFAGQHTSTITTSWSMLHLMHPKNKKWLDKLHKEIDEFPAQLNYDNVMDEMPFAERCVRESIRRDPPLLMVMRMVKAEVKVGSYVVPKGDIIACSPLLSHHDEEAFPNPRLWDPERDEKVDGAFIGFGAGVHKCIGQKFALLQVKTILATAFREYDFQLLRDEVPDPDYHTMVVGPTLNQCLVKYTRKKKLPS

Row | Compound | IC50 [1] | IC50 [2] | IC50 [3] | IC50 [4] | IC50 [5] | IC50 [6] | IC50 [7] | IC50 at 48 h [8] | IC50 [9] | IC50 [10] | IC50 [11] | IC50 [12] | IC50 [13]
1 | O=C(c1ccc(OCCCc2cnc[nH]2)cc1)C1CC1 | 0.0501 µM | > 39.8 µM | 0.355 µM | > 50.1 µM | > 50.1 µM | 10 µM | > 50.1 µM | > 100 µM | > 50.1 µM | 1.58 µM | 7.94 µM | 1.26 µM | 12.6 µM
2 | Cc1cc(C)c(C#N)c(SCC(=O)c2ccc3c(c2)OCO3)n1 | > 100 µM | 15.8 µM | 2 µM | > 50.1 µM | > 50.1 µM | 20 µM | > 50.1 µM | > 100 µM | > 50.1 µM | 0.794 µM | > 50.1 µM | 0.398 µM | > 50.1 µM
3 | Cc1cc(N(C)C)nc2ccc(Cc3cnc(N)nc3N)cc12 | > 100 µM | 5.01 µM | 1.26 µM | > 50.1 µM | 31.6 µM | 5.01 µM | 39.8 µM | 31.6 µM | > 50.1 µM | 6.31 µM | 39.8 µM | 3.16 µM | 10 µM
4 | Cc1cc(Br)cc(C(=O)c2c(C(C)C)c(=O)[nH]c(=O)n2Cc2ccnc(N)c2)c1 | 0.0158 µM | 25.1 µM | 0.398 µM | > 50.1 µM | 31.6 µM | 12.6 µM | 39.8 µM | > 100 µM | > 50.1 µM | 0.316 µM | 20 µM | 0.251 µM | 15.8 µM
5 | N#Cc1c(Oc2cccc(Cl)c2)cccc1[N+](=O)[O-] | > 100 µM | 0.00501 µM | 0.316 µM | 15.8 µM | 10 µM | 0.00794 µM | > 50.1 µM | 25.1 µM | 7.94 µM | 0.631 µM | 7.94 µM | 0.126 µM | 20 µM
6 | COc1ccccc1-c1c(C)[nH]c2nc(N)nc(C)c12 | > 100 µM | > 39.8 µM | 0.178 µM | > 50.1 µM | 25.1 µM | 25.1 µM | > 50.1 µM | > 100 µM | 12.6 µM | 0.251 µM | 15.8 µM | 0.126 µM | > 50.1 µM
7 | O=C(NCC1CCCCC1)c1cnns1 | > 100 µM | 1.26 µM | 2.51 µM | > 50.1 µM | > 50.1 µM | 1 µM | > 50.1 µM | 39.8 µM | 12.6 µM | 3.16 µM | 10 µM | 2 µM | > 50.1 µM
8 | O=C1CN(C2CCCc3c(OCc4ccncc4)cccc32)C(=O)N1C1CCCCC1 (stereo not drawn) | 0.02 µM | > 39.8 µM | 0.251 µM | > 50.1 µM | > 50.1 µM | 15.8 µM | > 50.1 µM | > 100 µM | > 50.1 µM | 0.0158 µM | > 50.1 µM | 0.0126 µM | > 50.1 µM
9 | Cc1cccc(NS(=O)(=O)c2ccc3c(c2)C(=O)c2cc(S(=O)(=O)Nc4cccc(C)c4C)ccc2-3)c1C | > 100 µM | 10 µM | 0.398 µM | 31.6 µM | > 50.1 µM | 7.94 µM | > 50.1 µM | > 100 µM | > 50.1 µM | 0.398 µM | > 50.1 µM | 0.398 µM | > 50.1 µM
10 | O=C(Cn1cnc([N+](=O)[O-])n1)Nc1ccc(Cl)cc1C(=O)c1ccccc1 | 10 µM | 31.6 µM | 0.251 µM | > 50.1 µM | > 50.1 µM | 20 µM | > 50.1 µM | > 100 µM | > 50.1 µM | 1.26 µM | > 50.1 µM | 0.316 µM | > 50.1 µM
11 | N#Cc1ccc(S(=O)(=O)N2CCN(Cc3cccc(-c4ccncc4)c3)CC2)cc1 | 0.0794 µM | 20 µM | 0.398 µM | 25.1 µM | > 50.1 µM | > 39.8 µM | > 50.1 µM | > 100 µM | > 50.1 µM | 0.251 µM | 1.26 µM | 0.2 µM | 12.6 µM
12 | CN(C)Cc1ccc(N2CCC(NS(=O)(=O)c3ccc(Cl)cc3)CC2)cc1 | > 100 µM | 31.6 µM | 0.794 µM | 12.6 µM | > 50.1 µM | 25.1 µM | 25.1 µM | 50.1 µM | 39.8 µM | 0.316 µM | 25.1 µM | 0.251 µM | 15.8 µM
13 | Oc1nccc2ccc(-c3ccncc3)cc12 | 0.0158 µM | > 39.8 µM | 0.2 µM | > 50.1 µM | > 50.1 µM | 31.6 µM | 39.8 µM | > 100 µM | > 50.1 µM | 0.251 µM | 20 µM | 0.251 µM | > 50.1 µM
14 | CNc1cc(Cn2c(C(=O)c3cc(C)cc(Cl)c3)c(C(C)C)c(=O)[nH]c2=O)ccn1 | 0.0316 µM | 25.1 µM | 0.0398 µM | > 50.1 µM | 20 µM | 25.1 µM | > 50.1 µM | > 100 µM | > 50.1 µM | 0.02 µM | 12.6 µM | 0.02 µM | 10 µM
15 | O=c1[nH]cnc2c([C@@H]3O[C@H](CO)[C@@H](O)[C@H]3O)n[nH]c12 [FORMYCIN B] | > 100 µM | 0.00501 µM | 0.141 µM | > 50.1 µM | 2 µM | 0.00316 µM | > 50.1 µM | > 100 µM | 0.398 µM | 0.501 µM | 0.398 µM | 0.316 µM | > 50.1 µM
16 | CC(C)(C)C(O)(CCc1ccc(Cl)cc1)Cn1cncn1 (stereo not drawn) [TEBUCONAZOLE] | 0.126 µM | > 39.8 µM | 0.126 µM | > 50.1 µM | > 50.1 µM | > 39.8 µM | > 50.1 µM | > 100 µM | 3.16 µM | 0.251 µM | > 50.1 µM | 0.2 µM | > 50.1 µM

Source: ChEMBL document CHEMBL3430912, “GSK Tres Cantos Anti-Kinetoplastid Screening (TCAKS) Data”
